Source: ChEMBL document CHEMBL2406906, “1,2,4-Triazole derivatives as transient inactivators of kallikreins involved in skin diseases” (Bioorg Med Chem Lett, 2013)
The source made the active and inactive calls. No cut-off for these calls is given here.

How the values were obtained:
[1] = target: T1, Suppressor of tumorigenicity 14 protein (Homo sapiens, UniProt Q9Y5Y6); assay: Inhibition of human matriptase measured after 15 mins at pH 8 by fluorescence assay
T1 sequence (Q9Y5Y6 whole entry): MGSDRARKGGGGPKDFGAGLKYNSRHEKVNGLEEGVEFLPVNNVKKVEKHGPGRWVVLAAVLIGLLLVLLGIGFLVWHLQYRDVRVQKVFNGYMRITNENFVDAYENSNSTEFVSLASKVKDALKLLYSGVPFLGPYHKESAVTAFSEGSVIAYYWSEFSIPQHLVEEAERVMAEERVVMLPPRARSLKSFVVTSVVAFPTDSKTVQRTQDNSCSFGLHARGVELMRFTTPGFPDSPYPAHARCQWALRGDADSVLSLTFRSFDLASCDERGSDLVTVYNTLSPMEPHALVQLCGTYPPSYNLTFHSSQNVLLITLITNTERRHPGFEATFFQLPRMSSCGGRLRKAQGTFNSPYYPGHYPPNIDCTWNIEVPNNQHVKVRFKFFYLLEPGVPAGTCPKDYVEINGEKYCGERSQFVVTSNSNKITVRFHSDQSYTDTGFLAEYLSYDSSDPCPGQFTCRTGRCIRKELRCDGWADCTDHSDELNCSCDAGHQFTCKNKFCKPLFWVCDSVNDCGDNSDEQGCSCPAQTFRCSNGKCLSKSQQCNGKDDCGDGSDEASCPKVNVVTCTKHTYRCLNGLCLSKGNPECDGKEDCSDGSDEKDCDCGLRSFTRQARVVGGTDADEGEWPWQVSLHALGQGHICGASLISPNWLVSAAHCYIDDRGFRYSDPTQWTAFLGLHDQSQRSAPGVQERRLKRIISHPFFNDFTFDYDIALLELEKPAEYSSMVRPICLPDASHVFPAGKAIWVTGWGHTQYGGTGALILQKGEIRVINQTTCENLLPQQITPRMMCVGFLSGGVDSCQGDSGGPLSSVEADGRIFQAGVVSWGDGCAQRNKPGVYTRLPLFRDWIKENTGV

Kallikrein-14 = target: T2, Kallikrein-14 (Homo sapiens, UniProt Q9P0G3); assay: Inhibition of human kallikrein 14 measured after 15 mins at pH 8 by fluorescence assay
T2 sequence (Q9P0G3 whole entry): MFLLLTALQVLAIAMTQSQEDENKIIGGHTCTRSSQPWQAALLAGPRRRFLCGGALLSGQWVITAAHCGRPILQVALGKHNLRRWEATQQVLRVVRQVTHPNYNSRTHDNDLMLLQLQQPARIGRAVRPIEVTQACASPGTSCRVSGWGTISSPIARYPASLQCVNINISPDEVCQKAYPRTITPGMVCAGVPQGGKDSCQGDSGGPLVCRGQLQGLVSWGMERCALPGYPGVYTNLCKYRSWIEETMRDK

Kallikrein-7 [2] = target: T3, Kallikrein-7 (Homo sapiens, UniProt P49862); assay: Inhibition of human kallikrein 7 measured after 15 mins at pH 8 by fluorescence assay
Target sequence in this assay (P49862 whole entry): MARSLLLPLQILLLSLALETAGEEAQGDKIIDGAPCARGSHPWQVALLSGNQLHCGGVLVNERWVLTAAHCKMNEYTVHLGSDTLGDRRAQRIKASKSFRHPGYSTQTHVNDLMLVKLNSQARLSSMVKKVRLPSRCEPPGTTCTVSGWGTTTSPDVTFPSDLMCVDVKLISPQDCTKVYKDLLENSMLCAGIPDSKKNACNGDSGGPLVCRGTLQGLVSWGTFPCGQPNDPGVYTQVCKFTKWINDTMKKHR

Kallikrein-5 [3] = target: T4, Kallikrein-5 (Homo sapiens, UniProt Q9Y337); assay: Inhibition of human kallikrein 5 measured after 15 mins at pH 8 by fluorescence assay
T4 sequence (Q9Y337 whole entry): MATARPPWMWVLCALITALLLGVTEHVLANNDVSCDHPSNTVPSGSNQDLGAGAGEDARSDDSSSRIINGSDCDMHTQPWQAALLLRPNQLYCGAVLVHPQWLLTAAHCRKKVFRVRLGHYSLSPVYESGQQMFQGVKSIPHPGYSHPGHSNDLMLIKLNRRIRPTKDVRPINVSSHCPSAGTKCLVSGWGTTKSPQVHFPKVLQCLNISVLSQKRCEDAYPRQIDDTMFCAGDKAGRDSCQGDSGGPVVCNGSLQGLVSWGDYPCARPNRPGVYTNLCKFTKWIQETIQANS

Kallikrein-7 [4] = target: T3, Kallikrein-7; assay: Binding affinity to human kallikrein 7 assessed as deacylation of enzyme relative to control
Target sequence in this assay (P49862 30-253 limits assumed): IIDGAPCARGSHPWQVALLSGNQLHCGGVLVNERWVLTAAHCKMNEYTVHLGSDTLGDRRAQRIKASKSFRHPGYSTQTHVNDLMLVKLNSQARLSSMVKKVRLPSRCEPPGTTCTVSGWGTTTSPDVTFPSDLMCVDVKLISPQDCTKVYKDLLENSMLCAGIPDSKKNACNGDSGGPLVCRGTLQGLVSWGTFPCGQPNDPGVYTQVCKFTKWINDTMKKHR

[5] = target: Kallikrein-5 (Homo sapiens) (UniProt Q9Y337); assay: Binding affinity to human kallikrein 5 assessed as deacylation of enzyme relative to control
[6] = Cytotoxicity against human keratinocytes at 1 to 10 uM after 48 hrs by neutral red uptake assay; assay type: cell-based; conditions: keratinocyte
[7] = target: T5, Suppressor of tumorigenicity 14 protein (Homo sapiens) (UniProt Q9Y5Y6); assay: Binding affinity to human matriptase assessed as half life of deacylated enzyme
T5 sequence (whole entry): T1 sequence (Q9Y5Y6 whole entry)

Kallikrein-7 [8] = target: T3, Kallikrein-7; assay: Binding affinity to human kallikrein 7 assessed as half life of deacylated enzyme
Target sequence in this assay (P49862 30-253 limits assumed): as above

[9] = target: T6, Kallikrein-14 (Homo sapiens) (UniProt Q9P0G3); assay: Binding affinity to human kallikrein 14 assessed as half life of deacylated enzyme
T6 sequence (whole entry): T2 sequence (Q9P0G3 whole entry)

[10] = target: Kallikrein-5 (Homo sapiens) (UniProt Q9Y337); assay: Transient inhibition of human kallikrein 5 assessed as spontaneous reactivation up to 6 hrs
Kallikrein-5 [11] = target: T4, Kallikrein-5; assay: Inhibition of human kallikrein 5 measured after 15 mins at pH 8 by double-reciprocal plot analysis
[12] = target: Kallikrein-5 (Homo sapiens) (UniProt Q9Y337); assay: Inhibition of human kallikrein 5 at 296 nM to 1 uM at pH 8 by fluorescence assay; conditions: TDE = time-dependent effect
Kallikrein-7 [13] = target: T3, Kallikrein-7; conditions: 296 nM
Target sequence in this assay (P49862 30-253 limits assumed): as above
Description: Inhibition of human kallikrein 7 at 296 nM to 1 uM at pH 8 by fluorescence assay

Kallikrein-7 [14] = target: T3, Kallikrein-7; assay: Inhibition of human kallikrein 7 at 0.5 to 8 uM at pH 8 by fluorescence assay; conditions: TDE = time-dependent effect
Target sequence in this assay (P49862 30-253 limits assumed): as above

[15] = target: Kallikrein-5 (Homo sapiens) (UniProt Q9Y337); assay: Inhibition of human kallikrein 5 at 0.5 to 8 uM at pH 8 by fluorescence assay; conditions: TDE = time-dependent effect

SMILES	fold change (FC) (Kallikrein-7 [4])	IC50 ([1]; read-out: IC50)	IC50 (Kallikrein-14; read-out: IC50)	IC50 (Kallikrein-7 [2]; read-out: IC50)	IC50 (Kallikrein-5 [3]; read-out: IC50)	Activity [6]	T1/2 [9]	other results
C/C(=C\c1ccccc1)C(=O)n1nnc2ccccc21	–	–	–	–	–	–	–	IC50 [1]: Not Active; IC50 (Kallikrein-14): Not Active; IC50 (Kallikrein-7 [2]): Not Active; IC50 (Kallikrein-5 [3]): Not Active
Nc1nc(-c2cccnc2)nn1C(=O)c1ccc(Cl)cc1	2	> 30000 nM	> 30000 nM	220 nM	1140 nM	–	–	fold change (FC) [5]: 8
CSc1nc(-c2ccc(Cl)cc2)nn1C(=O)c1ccccc1	0.2	420 nM	970 nM	660 nM	140 nM	Non-toxic	5 min	T1/2 [7]: 5 min; T1/2 (Kallikrein-7 [8]): 39 min
COc1ccc(C(=O)n2cnnc2N)cc1	–	> 30000 nM	3430 nM	610 nM	990 nM	Non-toxic	5 min	–
Nc1nc(-c2cccnc2)nn1C(=O)c1ccc(Cl)cc1Cl	–	–	–	3500 nM	> 30000 nM	–	–	IC50 [1]: Not Active; IC50 (Kallikrein-14): Not Active
Cc1ccc(C(=O)n2nc(-c3cccnc3)nc2N)cc1	–	570 nM	1290 nM	40 nM	270 nM	Non-toxic	5 min	T1/2 [7]: 5 min; inhibition [10]: Active; Ki (Kallikrein-5 [11]): 4400 nM; inhibition [12]: tde; inhibition (Kallikrein-7 [13]): tde
COc1ccc(C(=O)n2nc(-c3ccccc3)nc2N)cc1OC	0.2	> 30000 nM	> 30000 nM	230 nM	1300 nM	–	–	fold change (FC) [5]: 4; inhibition (Kallikrein-7 [14]): tde; inhibition [15]: tde
